In patent US9199984B2, “Inhibition of enzymes” (CHIESI FARMACEUTICI S.p.A., priority 2012, dated 2015):
Where a name gives a salt, the structure may show the parent alone.

Biological target: T1, human neutrophil elastase (HNE) (Homo sapiens, UniProt P08246)
T1 construct: purchased Sigma E8140
T1 sequence (P08246 30-247 limits assumed): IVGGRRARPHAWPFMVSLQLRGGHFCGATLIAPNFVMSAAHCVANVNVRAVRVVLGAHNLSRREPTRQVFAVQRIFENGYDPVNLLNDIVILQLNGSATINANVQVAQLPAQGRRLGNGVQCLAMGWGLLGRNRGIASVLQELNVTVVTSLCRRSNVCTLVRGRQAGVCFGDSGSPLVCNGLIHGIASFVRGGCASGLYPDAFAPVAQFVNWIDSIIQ
Assay: HNE enzyme activity assay
Assay type: biochemical
Conditions: human leukocyte elastase, substrate MeOSuc-Ala-Ala-Pro-Val-AMC 100 μM, 25° C. for 30 minutes, fluorescence; read-out: HNE inhibition
Experimental: Compounds of the present invention were tested for potency in a human neutrophil elastase (HNE) enzyme activity assay.
Assays were performed in 96-well plates in a total assay volume of 100 μl. The final concentration of elastase enzyme (human leukocyte elastase, Sigma E8140) was 0.0036 units/well […]. The peptide substrate (MeOSuc-Ala-Ala-Pro-Val-AMC, Calbiochem #324740) was used at a final concentration of 100 μM. The final concentration of DMSO was 1% in the assay buffer (0.05M Tris.HCl, 0.1M NaCl, 0.1M CaCl2, 0.0005% brij-35, pH 7.5). The enzymatic reaction was started by addition of the enzyme and incubated at 25° C. for 30 minutes. After incubation, the reaction was stopped by addition of soybean trypsin inhibitor (Sigma T9003) at a final concentration of 50 μg/well. Fluorescence was measured using a Molecular Devices fluorescence plate reader using 380 nm excitation and 460 nm emission wavelengths.
A dose response to each compound was performed and the effect of compound in each experiment was expressed as a percentage inhibition of the control enzyme fluorescence. Dose response curves were plotted and compound potency (IC50) was determined. Compounds were tested in at least two separate experiments.

IC50 | Compound
< 20 nM | Cc1c(-c2ccnn2-c2ccc(C#N)cc2)cn2nc(NCC(=O)N(C)C)nc2c1-c1cccc(C(F)(F)F)c1 [Example 24, 2-[6-[2-(4-Cyano-phenyl)-2H-pyrazol-3-yl]-7-methyl-8-(3-trifluoromethyl-phenyl)-[1,2,4]triazolo[1,5-a]pyridin-2-ylamino]-N,N-dimethyl-acetamide]
< 20 nM | Cc1c(-c2ccnn2-c2ccc(C#N)cc2)cn2nc(NCC(C)O)nc2c1-c1cccc(C(F)(F)F)c1 (centres unmarked) [Example 49, 4-{5-[2-(2-Hydroxy-propylamino)-7-methyl-8-(3-trifluoromethyl-phenyl)-[1,2,4]triazolo[1,5-a]pyridin-6-yl]-pyrazol-1-yl}-benzonitrile]
< 20 nM | CNCCCC(=O)Nc1nc2c(-c3cccc(C(F)(F)F)c3)c(C)c(-c3ccnn3-c3ccc(C#N)cc3)cn2n1 [Example 56, N-[6-[2-(4-Cyano-phenyl)-2H-pyrazol-3-yl]-7-methyl-8-(3-trifluoromethyl-phenyl)-[1,2,4]triazolo[1,5-a]pyridin-2-yl]-4-methylamino-butyramide]
< 20 nM | Cc1c(-c2ccnn2-c2ccc(C#N)cc2)cn2nc(NC(=O)CCC(=O)O)nc2c1-c1cccc(C(F)(F)F)c1 [Example 55, N-[6-[2-(4-Cyano-phenyl)-2H-pyrazol-3-yl]-7-methyl-8-(3-trifluoromethyl-phenyl)-[1,2,4]triazolo[1,5-a]pyridin-2-yl]-succinamic acid]
< 20 nM | Cc1c(-c2ccnn2-c2ccc(C#N)cc2)cn2nc(NC(=O)CCCN(C)C)nc2c1-c1cccc(C(F)(F)F)c1 [Example 16, N-[6-[2-(4-Cyano-phenyl)-2H-pyrazol-3-yl]-7-methyl-8-(3-trifluoromethyl-phenyl)-[1,2,4]triazolo[1,5-a]pyridin-2-yl]-4-dimethylamino-butyramide]
< 20 nM | COCCOC(=O)Nc1nc2c(-c3cccc(C(F)(F)F)c3)c(C)c(-c3ccnn3-c3ccc(C#N)cc3)cn2n1 [Example 36, [6-[2-(4-Cyano-phenyl)-2H-pyrazol-3-yl]-7-methyl-8-(3-trifluoromethyl-phenyl)-[1,2,4]triazolo[1,5-a]pyridin-2-yl]-carbamic acid 2-methoxyethyl ester]

Further lines, the compound ahead of its results:

Compound | IC50
Cc1c(-c2ccnn2-c2ccc(C#N)cc2)cn2nc(NCCCN(C)C)nc2c1-c1cccc(C(F)(F)F)c1 [Example 28, 4-{5-[2-(3-Dimethylamino-propylamino)-7-methyl-8-(3-trifluoromethyl-phenyl)-[1,2,4]triazolo[1,5-a]pyridin-6-yl]-pyrazol-1-yl}-benzonitrile] | < 20 nM
Cc1c(-c2ccnn2-c2ccc(C#N)cc2)cn2nc(NC(=O)NC3CCNCC3)nc2c1-c1cccc(C(F)(F)F)c1 [Example 50, 1-[6-[2-(4-Cyano-phenyl)-2H-pyrazol-3-yl]-7-methyl-8-(3-trifluoromethyl-phenyl)-[1,2,4]triazolo[1,5-a]pyridin-2-yl]-3-piperidin-4-yl-urea] | < 20 nM
Cc1c(-c2ccnn2-c2ccc(C#N)cc2)cn2nc(Cc3ccc(S(C)(=O)=O)cc3)nc2c1-c1cccc(C(F)(F)F)c1 [Example 8, 4-{5-[2-(4-Methanesulfonyl-benzyl)-7-methyl-8-(3-trifluoromethyl-phenyl)-[1,2,4]triazolo[1,5-a]pyridin-6-yl]-pyrazol-1-yl}-benzonitrile] | 100 to 500 nM
Cc1c(-c2ccnn2-c2ccc(C#N)cc2)cn2c(=O)n(Cc3ccc(S(C)(=O)=O)cc3)nc2c1-c1cccc(C(F)(F)F)c1 [Example 10, 4-{5-[2-(4-Methanesulfonyl-benzyl)-7-methyl-3-oxo-8-(3-trifluoromethyl-phenyl)-2,3-dihydro-[1,2,4]triazolo[4,3-a]pyridin-6-yl]-pyrazol-1-yl}-benzonitrile] | 100 to 500 nM
Cc1c(-c2ccnn2-c2ccc(C#N)cc2)cn2c(=O)n(CCCS(C)(=O)=O)nc2c1-c1cccc(C(F)(F)F)c1 [Example 13, 4-{5-[2-(3-Methanesulfonyl-propyl)-7-methyl-3-oxo-8-(3-trifluoromethyl-phenyl)-2,3-dihydro-[1,2,4]triazolo[4,3-a]pyridin-6-yl]-pyrazol-1-yl}-benzonitrile] | 100 to 500 nM
Cc1c(-c2ccnn2-c2ccc(C#N)cc2)cn2nc(NC(=O)CN3CCN(C)CC3)nc2c1-c1cccc(C(F)(F)F)c1 [Example 18, N-[6-[2-(4-Cyano-phenyl)-2H-pyrazol-3-yl]-7-methyl-8-(3-trifluoromethyl-phenyl)-[1,2,4]triazolo[1,5-a]pyridin-2-yl]-2-(4-methyl-piperazin-1-yl)-acetamide] | < 20 nM
Cc1c(-c2ccnn2-c2ccc(C#N)cc2)cn2nc(NCC[N+](C)(C)C)nc2c1-c1cccc(C(F)(F)F)c1 [Example 33, {3-[6-[2-(4-Cyano-phenyl)-2H-pyrazol-3-yl]-7-methyl-8-(3-trifluoromethyl-phenyl)-[1,2,4]triazolo[1,5-a]pyridin-2-ylamino]-ethyl}-trimethyl-ammonium benzenesulfonate] | < 20 nM
Cc1c(-c2nc(N)nn2-c2ccc(C#N)cc2)cn2nc(N)nc2c1-c1cccc(C(F)(F)F)c1 [Example 61, 4-{3-Amino-5-[2-amino-7-methyl-8-(3-trifluoromethyl-phenyl)-[1,2,4]triazolo[1,5-a]pyridin-6-yl]-[1,2,4]triazol-1-yl}-benzonitrile] | < 20 nM
Cc1c(-c2ccnn2-c2ccc(C#N)cc2)cn2nc(NC(=O)NC3CCN(C)CC3)nc2c1-c1cccc(C(F)(F)F)c1 [Example 51, (1-Methyl-4-piperidyl)[6-[2-(4-cyano-phenyl)-2H-pyrazol-3-yl]-7-methyl-8-(3-trifluoromethyl-phenyl)-[1,2,4]triazolo[1,5-a]pyridin-2-yl]-urea] | < 20 nM
COc1nc2c(-c3cccc(C(F)(F)F)c3)c(C)c(-c3ccnn3-c3ccc(C#N)cc3)cn2n1 [Example 31, 4-{5-[2-Methoxy-7-methyl-8-(3-trifluoromethyl-phenyl)-[1,2,4]triazolo[1,5-a]pyridin-6-yl]-pyrazol-1-yl}-benzonitrile] | 100 to 500 nM
Cc1c(-c2ccnn2-c2ccc(C#N)cc2)cn2nc(NCCCC[N+](C)(C)C)nc2c1-c1cccc(C(F)(F)F)c1 [Example 34, {4-[6-[2-(4-Cyano-phenyl)-2H-pyrazol-3-yl]-7-methyl-8-(3-trifluoromethyl-phenyl)-[1,2,4]triazolo[1,5-a]pyridin-2-ylamino]-butyl}-trimethyl-ammonium formate] | < 20 nM
Cc1c(-c2ccnn2-c2ccc(C#N)cc2)cn2nc(N)nc2c1-c1cccc(C(F)(F)F)c1 [Example 1, 4-{5-[2-Amino-7-methyl-8-(3-trifluoromethyl-phenyl)-[1,2,4]triazolo[1,5-a]pyridin-6-yl]-pyrazol-1-yl}-benzonitrile] | 20 to 100 nM
Cc1c(-c2ccnn2-c2ccc(C#N)cc2)cn2nc(NC(=O)CN3CCS(=O)(=O)CC3)nc2c1-c1cccc(C(F)(F)F)c1 [Example 21, N-[6-[1-(4-Cyano-phenyl)-1H-pyrazol-5-yl]-7-methyl-8-(3-trifluoromethyl-phenyl)-[1,2,4]triazolo[1,5-a]pyridin-2-yl]-2-(1,1-dioxothiomorpholin-4-yl)-acetamide] | < 20 nM
Cc1nc2c(-c3cccc(C(F)(F)F)c3)c(C)c(-c3ccnn3-c3ccc(C#N)cc3)cn2n1 [Example 4, 4-{5-[2,7-Dimethyl-8-(3-trifluoromethyl-phenyl)-[1,2,4]triazolo[1,5-a]pyridin-6-yl]-pyrazol-1-yl}-benzonitrile] | > 500 nM
